pIC50: −log10 of the molar value.
System: IL-1β production in PMA-differentiated THP-1 cells
Test: IL-1β production in PMA-differentiated THP-1 cells stimulated with gramicidin (hTHP-1 assay, 2% fetal bovine serum; Procedures 1-3)
Format: cell-based, human
Conditions: Homo sapiens, THP-1, hTHP-1 assay containing 2% fetal bovine serum; class symbols; read-out: hTHP-1 IC50 (Average IC50 of compounds in hTHP-1 assay)
How it was run: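 PMA-differentiated (20 ng/ml, 16-18 h) THP-1 cells in RPMI with 2% FBS, 50,000 cells/well, preincubated 1 h with compound (final 100–0.0017 μM, 0.37% DMSO), then stimulated with 5 μM gramicidin for 2 h. Supernatant IL-1β measured by HTRF.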

Compound	pIC50
CN(C)C(C)(C)c1ccc(S(N)(=O)=NC(=O)Nc2c3c(cc4c2CCC4)CCC3)cc1 (centres unmarked) [Example 267, 4-(2-(Dimethylamino)propan-2-yl)-N′-(1,2,3,5,6,7-hexahydro-s-indacen-4-ylcarbamoyl)benzenesulfonimidamide]	6.70 to 7.40
COC(C)(C)c1ccc(S(N)(=O)=NC(=O)Nc2c3c(cc4c2CCC4)CCC3)cc1 (centres unmarked) [Example 274, N′-(1,2,3,5,6,7-hexahydro-s-indacen-4-ylcarbamoyl)-4-(2-methoxypropan-2-yl)benzenesulfonimidamide]	6.00 to 6.70
CN(C)Cc1ccc(S(N)(=O)=NC(=O)Nc2c3c(cc4c2CCC4)CCC3)nc1 (centres unmarked) [Example 278, 5-((Dimethylamino)methyl)-N′-(1,2,3,5,6,7-hexahydro-s-indacen-4-ylcarbamoyl)pyridine-2-sulfonimidamide]	6.00 to 6.70
CN(C)Cc1cc(F)c(S(N)(=O)=NC(=O)Nc2c3c(cc4c2CCC4)CCC3)s1 (centres unmarked) [Example 279, 5-((Dimethylamino)methyl)-3-fluoro-N′-(1,2,3,5,6,7-hexahydro-s-indacen-4-ylcarbamoyl)thiophene-2-sulfonimidamide]	7.40 to 8.10

The next lines start with the values.

pIC50	Compound
7.40 to 8.10	CC(C)(O)c1cc(F)c(S(N)(=O)=NC(=O)Nc2c3c(cc4c2CCC4)CCC3)s1 (centres unmarked) [Example 269, 3-Fluoro-N′-(1,2,3,5,6,7-hexahydro-s-indacen-4-ylcarbamoyl)-5-(2-hydroxypropan-2-yl)thiophene-2-sulfonimidamide]
6.70 to 7.40	CC(C)(O)c1ncc(S(N)(=O)=NC(=O)Nc2cc3c(c4c2CCC4)CCC3)s1 (centres unmarked) [Example 285, N′-((1,2,3,6,7,8-hexahydro-as-indacen-4-yl)carbamoyl)-2-(2-hydroxypropan-2-yl)thiazole-5-sulfonimidamide]
6.70 to 7.40	CC(C)(O)c1ncc(S(N)(=O)=NC(=O)Nc2c3c(cc4c2OCC4)CCC3)s1 (centres unmarked) [Example 289, 2-(2-Hydroxypropan-2-yl)-N′-((3,5,6,7-tetrahydro-2H-indeno[5,6-b]furan-8-yl)carbamoyl)thiazole-5-sulfonimidamide]
6.70 to 7.40	COC(C)(C)c1ncc(S(N)(=O)=NC(=O)Nc2c3c(cc4c2CCC4)CCC3)s1 (centres unmarked) [Example 295, N′-((1,2,3,5,6,7-hexahydro-s-indacen-4-yl)carbamoyl)-2-(2-methoxypropan-2-yl)thiazole-5-sulfonimidamide]

Same assay, conditions: hTHP-1 assay containing 2% fetal bovine serum; class symbols; read-out: hTHP-1 IC50 (Average IC50 of compounds in hTHP-1 assay)

Compound	pIC50
CC(c1ccc(S(N)(=O)=NC(=O)Nc2c3c(cc4c2CCC4)CCC3)cc1)N(C)C (centres unmarked) [Example 266, 4-(1-(Dimethylamino)ethyl)-N′-(1,2,3,5,6,7-hexahydro-s-indacen-4-ylcarbamoyl)benzenesulfonimidamide]	6.70 to 7.40
CN1CCCC1c1ccc(S(=N)(=O)NC(=O)Nc2c3c(cc4c2CCC4)CCC3)cc1 (centres unmarked) [Example 283, N-((1,2,3,5,6,7-hexahydro-s-indacen-4-yl)carbamoyl)-4-(1-methylpyrrolidin-2-yl)benzenesulfonimidamide]	6.00 to 6.70

The remaining lines, values ahead:

pIC50	Compound
6.70 to 7.40	CC1CCc2c1cc1c(c2NC(=O)N=S(N)(=O)c2cnc(C(C)(C)O)s2)CCC1 (centres unmarked) [Example 291, 2-(2-Hydroxypropan-2-yl)-N′-((1-methyl-1,2,3,5,6,7-hexahydro-s-indacen-4-yl)carbamoyl)thiazole-5-sulfonimidamide]
6.70 to 7.40	CC1CCc2cc3c(c(NC(=O)N=S(N)(=O)c4cnc(C(C)(C)O)s4)c21)CCC3 (centres unmarked) [Example 292, 2-(2-Hydroxypropan-2-yl)-N′-((3-methyl-1,2,3,5,6,7-hexahydro-s-indacen-4-yl)carbamoyl)thiazole-5-sulfonimidamide]
7.40 to 8.10	[2H]C([2H])([2H])C(O)(c1ncc([S@](N)(=O)=NC(=O)Nc2c3c(cc4c2CCC4)CCC3)s1)C([2H])([2H])[2H] [Example 393, (R)-N′-((1,2,3,5,6,7-hexahydro-s-indacen-4-yl)carbamoyl)-2-(2-hydroxypropan-2-yl-1,1,1,3,3,3-d6)thiazole-5-sulfonimidamide]
6.00 to 6.70	[2H]C([2H])([2H])C(O)(c1ncc([S@@](N)(=O)=NC(=O)Nc2c3c(cc4c2CCC4)CCC3)s1)C([2H])([2H])[2H] [Example 394, (S)-N′-((1,2,3,5,6,7-hexahydro-s-indacen-4-yl)carbamoyl)-2-(2-hydroxypropan-2-yl-1,1,1,3,3,3-d6)thiazole-5-sulfonimidamide]
